Assay results published in US9409905B2, “Antibacterial compounds and methods for use” (PTC THERAPEUTICS, INC., priority 2011, dated 2016).
Converted amounts (≈) assume the structure as drawn.

Legend:
[1] = tested on: E. coli 25922; test: Antibacterial activity, microbroth dilution MIC (Table 1); type: cell-based, Escherichia coli; settings: Escherichia coli; microbroth dilution; control Gram-negative E. coli 25922 strain; read-out: MIC, 25922
Outline: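 MIC (μg/mL) read as lowest concentration with no macroscopically visible growth; microbroth dilution format. E. coli 25922 served as control Gram-negative strain.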

[2] = tested on: Neisseria meningitidis (N. meningitidis) 13090; test: Antibacterial activity, MIC (Table 8); type: cell-based
Outline: (§1)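 Activity was determined by microbroth dilution. MIC, in μg/mL, is the lowest drug concentration that prevents macroscopically visible growth under the test conditions.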

[3] = tested on: Moraxella catarrhalis (M. catarrhalis) 25238; test: Antibacterial activity, MIC (Table 7); type: cell-based
Outline: as §1

[4] = tested on: E. coli ELZ4000; test: Antibacterial activity, MIC, multi-drug resistant clinical isolate (Table 3); type: cell-based; settings: Escherichia coli, ELZ4000, read-out: MIC ELZ4000
Outline: (§2)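 Microbroth dilution. Endpoint: absence of macroscopically visible growth. Value = MIC, μg/mL.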

[5] = tested on: E. coli ELZ4251; test: as above; type: cell-based; settings: Escherichia coli
Outline: as §2

[6] = tested on: Escherichia coli (E. coli) BAS849; test: Antibacterial activity, microbroth dilution MIC (Table 1); type: cell-based; settings: microbroth dilution, super sensitive Gram-negative E. coli BAS849, read-out: MIC, BAS849
Outline: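 In a microbroth dilution test, the minimum inhibitory concentration was defined as the lowest compound level preventing growth seen by eye, and was given in μg/mL.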

[7] = tested on: Staphylococcus aureus (S. aureus) 29213; test: as above; type: cell-based; settings: microbroth dilution, Gram-positive S. aureus 29213, read-out: MIC, 29213
Outline: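 Read-out: visual absence of growth. The lowest concentration meeting this gives the MIC, expressed in μg/mL, with microbroth dilution as the method.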

[8] = tested on: Acinetobacter baumannii (A. baumannii) BAA747; test: Antibacterial activity, MIC (Table 4); type: cell-based; settings: A. baumannii BAA747, read-out: MIC, BAA747
Outline: (§3)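 Values are minimum inhibitory concentrations in μg/mL from broth microdilution, meaning no macroscopically visible growth at that concentration. Resistant MXX isolates are multi-drug resistant clinical strains.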

[9] = tested on: Klebsiella pneumoniae (K. pneumoniae) 35657; test: Antibacterial activity, MIC (Table 4); type: cell-based; settings: K. pneumoniae 35657, read-out: MIC, 35657
Outline: as §3

[10] = tested on: A. baumannii MXX2240; test: Antibacterial activity, MIC, resistant strain (Table 4); type: cell-based; settings: Acinetobacter baumannii, MXX2240; resistant A. baumannii MMX2240, multi-drug resistant clinical isolate; read-out: MIC, MMX2240
Outline: as §3

[11] = tested on: K. pneumoniae MXX1232; test: as above; type: cell-based; settings: Klebsiella pneumoniae, MXX1232; resistant K. pneumoniae MMX1232, multi-drug resistant clinical isolate; read-out: MIC, MMX1232
Outline: as §3

[12] = tested on: Pseudomonas aeruginosa (P. aeruginosa) 27853; test: Antibacterial activity, MIC (Table 5); type: cell-based; settings: P. aeruginosa 27853, read-out: MIC, 27853
Outline: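 Compounds are serially diluted in broth and inoculated with the organism. Growth is then inspected macroscopically, and the lowest concentration showing none is taken as the MIC (μg/mL).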

[13] = tested on: E. coli LZ3111; test: Antibacterial activity, MIC, quinolone resistant strain (Table 2); type: cell-based; settings: Escherichia coli, LZ3111, read-out: MIC LZ3111
Outline: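 Strain carries mutations conferring high-level quinolone resistance; tested by microbroth dilution, MIC recorded in μg/mL as lowest concentration preventing visible growth.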

[14] = tested on: Haemophilus influenzae (H. influenzae) 49247; test: Antibacterial activity, MIC (Table 6); type: cell-based
Outline: as §1

Row | Compound | MIC [1] | MIC [2] | MIC [3] | MIC [4] | MIC [5] | MIC [6] | MIC [7] | MIC [8] | MIC [9] | MIC [10] | MIC [11] | MIC [12] | MIC [13] | MIC [14]
1 | CCc1c(-c2ccc3c(c2)cc(CNCC2CCCCN2C)n3C)[nH]c(=O)c(C(=O)O)c1O.Cl.Cl (stereo not shown) [Cpd 233, 5-ethyl-4-hydroxy-6-(1-methyl-2-((((1-methylpiperidin-2-yl)methyl)amino)methyl)-1H-indol-5-yl)-2-oxo-1,2-dihydropyridine-3-carboxylic acid dihydrochloride] | 1 to 3.5 mg/L | 1 to 3.5 mg/L | 3.5 to 12.5 mg/L | 12.5 to 150 mg/L | 12.5 to 150 mg/L | < 1 mg/L | 12.5 to 150 mg/L | 12.5 to 150 mg/L | 1 to 3.5 mg/L | 12.5 to 150 mg/L | 12.5 to 150 mg/L | 12.5 to 150 mg/L | 1 to 3.5 mg/L | 3.5 to 12.5 mg/L
2 | CCc1c(-c2ccc3c(c2)cc(CN2CCC(C)CC2)n3C)[nH]c(=O)c(C(=O)O)c1O [Cpd 247, 5-ethyl-4-hydroxy-6-(1-methyl-2-((4-methylpiperidin-1-yl)methyl)-1H-indol-5-yl)-2-oxo-1,2-dihydropyridine-3-carboxylic acid] | < 1 mg/L | < 1 mg/L | < 1 mg/L | 12.5 to 150 mg/L (≈ 29.5 to 354 µM) | 12.5 to 150 mg/L (≈ 29.5 to 354 µM) | < 1 mg/L | 3.5 to 12.5 mg/L (≈ 8.26 to 29.5 µM) | 1 to 3.5 mg/L (≈ 2.36 to 8.26 µM) | 1 to 3.5 mg/L (≈ 2.36 to 8.26 µM) | 1 to 3.5 mg/L (≈ 2.36 to 8.26 µM) | 12.5 to 150 mg/L (≈ 29.5 to 354 µM) | 12.5 to 150 mg/L (≈ 29.5 to 354 µM) | 3.5 to 12.5 mg/L (≈ 8.26 to 29.5 µM) | 1 to 3.5 mg/L (≈ 2.36 to 8.26 µM)
3 | CCc1c(-c2ccc3c(c2)cc(CN2CCC(N4CCCCC4)CC2)n3C)[nH]c(=O)c(C(=O)O)c1O [Cpd 251, 6-(2-(1,4′-bipiperidin-1′-ylmethyl)-1-methyl-1H-indol-5-yl)-5-ethyl-4-hydroxy-2-oxo-1,2-dihydropyridine-3-carboxylic acid] | 1 to 3.5 mg/L (≈ 2.03 to 7.1 µM) | < 1 mg/L | < 1 mg/L | 12.5 to 150 mg/L (≈ 25.4 to 304 µM) | 12.5 to 150 mg/L (≈ 25.4 to 304 µM) | < 1 mg/L | 3.5 to 12.5 mg/L (≈ 7.1 to 25.4 µM) | 3.5 to 12.5 mg/L (≈ 7.1 to 25.4 µM) | 1 to 3.5 mg/L (≈ 2.03 to 7.1 µM) | 12.5 to 150 mg/L (≈ 25.4 to 304 µM) | 12.5 to 150 mg/L (≈ 25.4 to 304 µM) | 12.5 to 150 mg/L (≈ 25.4 to 304 µM) | 3.5 to 12.5 mg/L (≈ 7.1 to 25.4 µM) | 1 to 3.5 mg/L (≈ 2.03 to 7.1 µM)
4 | CCc1c(-c2ccc3c(c2)cc(CN2CCCC(N(C)C)C2)n3C)[nH]c(=O)c(C(=O)O)c1O (stereo not shown) [Cpd 250, 6-(2-((3-(dimethylamino)piperidin-1-yl)methyl)-1-methyl-1H-indol-5-yl)-5-ethyl-4-hydroxy-2-oxo-1,2-dihydropyridine-3-carboxylic acid] | 1 to 3.5 mg/L (≈ 2.21 to 7.73 µM) | < 1 mg/L | 1 to 3.5 mg/L (≈ 2.21 to 7.73 µM) | 12.5 to 150 mg/L (≈ 27.6 to 331 µM) | 12.5 to 150 mg/L (≈ 27.6 to 331 µM) | < 1 mg/L | 3.5 to 12.5 mg/L (≈ 7.73 to 27.6 µM) | 3.5 to 12.5 mg/L (≈ 7.73 to 27.6 µM) | 3.5 to 12.5 mg/L (≈ 7.73 to 27.6 µM) | 12.5 to 150 mg/L (≈ 27.6 to 331 µM) | 12.5 to 150 mg/L (≈ 27.6 to 331 µM) | 12.5 to 150 mg/L (≈ 27.6 to 331 µM) | 3.5 to 12.5 mg/L (≈ 7.73 to 27.6 µM) | 3.5 to 12.5 mg/L (≈ 7.73 to 27.6 µM)
5 | CCc1c(-c2ccc3c(c2)cc(CN2CC4CCCNC4C2)n3C)[nH]c(=O)c(C(=O)O)c1O (stereo not shown) [Cpd 184, 5-ethyl-4-hydroxy-6-(1-methyl-2-((tetrahydro-1H-pyrrolo[3,4-b]pyridin-6(2H,7H,7aH)-yl)methyl)-1H-indol-5-yl)-2-oxo-1,2-dihydropyridine-3-carboxylic acid] | 1 to 3.5 mg/L (≈ 2.22 to 7.77 µM) | < 1 mg/L | 1 to 3.5 mg/L (≈ 2.22 to 7.77 µM) | 12.5 to 150 mg/L (≈ 27.7 to 333 µM) | 3.5 to 12.5 mg/L (≈ 7.77 to 27.7 µM) | < 1 mg/L | 12.5 to 150 mg/L (≈ 27.7 to 333 µM) | 3.5 to 12.5 mg/L (≈ 7.77 to 27.7 µM) | 1 to 3.5 mg/L (≈ 2.22 to 7.77 µM) | 12.5 to 150 mg/L (≈ 27.7 to 333 µM) | 12.5 to 150 mg/L (≈ 27.7 to 333 µM) | 12.5 to 150 mg/L (≈ 27.7 to 333 µM) | 1 to 3.5 mg/L (≈ 2.22 to 7.77 µM) | 1 to 3.5 mg/L (≈ 2.22 to 7.77 µM)
